Values quoted from earlier work, collected in patent US8187607B2, “Hapten-carrier conjugates and uses thereof” (Cytos Biotechnology AG, priority 2002, dated 2012).

Test system: cigarette smokers
Conditions: at 12 months

CC(NC(C)(C)C)C(=O)c1cccc(Cl)c1 (stereo not shown) [bupropion]
Abstinence rates: about 30%
